From ChEMBL document CHEMBL3352781, “Synthesis, antileishmanial and antitrypanosomal activities of N-substituted tetrahydro-β-carbolines” (Bioorg Med Chem Lett, 2014)
The source made the active and inactive calls. The rule behind the calls is not given here.

How the values were obtained:
[1] = test system: Trypanosoma brucei; test: Antimicrobial activity against trypamastigote stage of Trypanosoma brucei after 72 hrs by Alamar Blue assay; assay type: functional, organism-based
[2] = test system: Leishmania donovani; test: Antimicrobial activity against promastigote stage of Leishmania donovani after 72 hrs by Alamar Blue assay; assay type: functional, organism-based
[3] = test system: Leishmania donovani; test: Antimicrobial activity against axenic amastigote stage of Leishmania donovani after 72 hrs by Alamar Blue assay; assay type: functional, organism-based
[4] = test system: Leishmania donovani; test: Antimicrobial activity against promastigote stage of Leishmania donovani infected in human THP1 cells after 72 hrs by Alamar Blue assay; assay type: functional, organism-based
[5] = test system: THP-1; test: Cytotoxicity against human THP1 cells up to 10 ug/ml after 48 hrs by neutral red assay; assay type: cell-based; conditions: thp-1, 48 h
[6] = test system: HepG2; test: Cytotoxicity against human HepG2 cells up to 25 ug/ml after 48 hrs by neutral red assay; assay type: cell-based; conditions: hepg2, 48 h
[7] = test system: Vero; test: Cytotoxicity against African green monkey Vero cells up to 25 ug/ml after 48 hrs by neutral red assay; assay type: cell-based; conditions: chlorocebus sabaeus
[8] = test system: LLC-PK1; test: Cytotoxicity against pig LLC-PK1 cells up to 25 ug/ml after 48 hrs by neutral red assay; assay type: cell-based, Sus scrofa; conditions: llc-pk1, 48 h
[9] = test system: Trypanosoma cruzi; test: Antimicrobial activity against epimastigote stage of Trypanosoma cruzi Y; assay type: functional, organism-based
[10] = test system: HepG2; test: Cytotoxicity against human HepG2 cells after 48 hrs by neutral red assay; assay type: cell-based; conditions: HepG2, 48 h
[11] = test system: Leishmania infantum; test: Antimicrobial activity against amastigote stage of Leishmania infantum; assay type: functional, organism-based
[12] = test system: Leishmania infantum; test: Antimicrobial activity against promastigote stage of Leishmania infantum; assay type: functional, organism-based
[13] = Leishmania donovani, 72 h, read-out: IC50
[14] = Trypanosoma brucei, 72 h, read-out: IC50
[15] = Leishmania donovani, THP-1, 72 h
[16] = Leishmania donovani, THP-1, 72 h, read-out: IC50

| Compound | IC50 [1] | IC90 [1] | IC50 [3] | IC90 [3] | IC90 ([4]; THP-1) | IC50 ([4]; thp-1) | Activity [5] | Activity [6] | Activity [7] | Activity [8] | IC50 [2, 13] | IC50 [3, 13] | IC50 [1, 14] | further results |
| --- | --- | --- | --- | --- | --- | --- | --- | --- | --- | --- | --- | --- | --- | --- |
| c1ccc2nc(CN3CCc4c([nH]c5ccccc45)C3)ccc2c1 | Not Active | inactive | Not Active | inactive | inactive | Not Active | – | – | – | – | – | – | – | IC50 [2]: Not Active; IC90 [2]: inactive |
| O=C(c1ccc(-c2ccc(-c3ccccc3)cc2)o1)N1CCc2c([nH]c3ccccc23)C1 | Not Active | inactive | – | – | inactive | Not Active | Non-toxic | Non-toxic | Non-toxic | Non-toxic | 75.3 µM | 83.4 µM | – | IC90 ([2]; Leishmania donovani, 72 h): 111 µM; IC90 ([3]; Leishmania donovani, 72 h): 110 µM |
| Cn1cc(C(=O)N2CCc3c([nH]c4ccccc34)C2)c2ccccc21 | Not Active | inactive | Not Active | inactive | inactive | Not Active | Non-toxic | Non-toxic | Non-toxic | Non-toxic | 52.6 µM | – | – | – |
| NCCCC(N)(C(=O)O)C(F)F (stereo unspecified) [EFLORNITHINE] | – | – | – | – | – | – | – | – | – | – | – | – | 28 µM | IC90 ([1]; Trypanosoma brucei, 72 h): 68.2 µM |
| CN1CCN(C(=O)c2cc3c4ccccc4n4c(=O)c5ccccc5c(n2)c34)CC1 | – | – | – | – | – | – | – | – | – | – | – | – | – | IC50 [9]: 0.4 µM |
| c1ccc2cc(CN3CCc4c([nH]c5ccccc45)C3)ccc2c1 | – | – | – | – | – | – | Non-toxic | Non-toxic | Non-toxic | Non-toxic | 22.1 µM | 87.6 µM | 10.2 µM | IC90 ([1]; Trypanosoma brucei, 72 h): 17.6 µM; IC90 ([2]; Leishmania donovani, 72 h): 28.1 µM; IC90 [4, 15]: > 32 µM; IC50 [4, 16]: 28.3 µM |
| Cc1noc(C)c1CN1CCc2c([nH]c3ccccc23)C1 | – | – | Not Active | inactive | inactive | Not Active | Non-toxic | Non-toxic | Non-toxic | Non-toxic | – | – | 15.9 µM | IC90 ([1]; Trypanosoma brucei, 72 h): 26.3 µM; IC50 [2]: Not Active; IC90 [2]: inactive |
| C[C@@H]1[C@H](O)[C@@H](C)/C=C/C=C/C=C/C=C/C=C/C=C/C=C/[C@H](O[C@@H]2O[C@H](C)[C@@H](O)[C@H](N)[C@@H]2O)C[C@@H]2O[C@](O)(C[C@@H](O)C[C@@H](O)[C@H](O)CC[C@@H](O)C[C@@H](O)CC(=O)O[C@H]1C)C[C@H](O)[C@H]2C(=O)O [AMPHOTERICIN B] | Not Active | inactive | – | – | – | – | – | – | – | – | 0.3 µM | 0.3 µM | – | IC90 ([2]; Leishmania donovani, 72 h): 0.4 µM; IC90 ([3]; Leishmania donovani, 72 h): 0.4 µM; IC90 [4, 15]: 0.5 µM |
| O=C(c1ccc(-c2cc(C(F)(F)F)ccc2Cl)o1)N1CCc2c([nH]c3ccccc23)C1 | Not Active | inactive | – | – | inactive | Not Active | Non-toxic | – | – | – | 39.6 µM | 37.1 µM | – | IC90 ([2]; Leishmania donovani, 72 h): 69.1 µM; IC90 ([3]; Leishmania donovani, 72 h): 76 µM; IC50 [10]: 25.5 µM |
| Clc1ccc(CN2CCc3c([nH]c4ccccc34)C2)s1 | – | – | Not Active | inactive | inactive | Not Active | Non-toxic | Non-toxic | Non-toxic | Non-toxic | 9.1 µM | – | 8.9 µM | IC90 ([1]; Trypanosoma brucei, 72 h): 14.5 µM; IC90 ([2]; Leishmania donovani, 72 h): 25.6 µM |
| O=C1NCCN1C(=O)N1CCc2c([nH]c3ccccc23)C1 | Not Active | inactive | Not Active | inactive | inactive | Not Active | – | – | – | – | – | – | – | IC50 [2]: Not Active; IC90 [2]: inactive |
| O=C(c1ccc(-c2cccc([N+](=O)[O-])c2)o1)N1CCc2c([nH]c3ccccc23)C1 | Not Active | inactive | Not Active | inactive | inactive | Not Active | Non-toxic | Non-toxic | Non-toxic | Non-toxic | 66.7 µM | – | – | – |
| Cc1ncsc1C(=O)N1CCc2c([nH]c3ccccc23)C1 | Not Active | inactive | Not Active | inactive | inactive | Not Active | – | – | – | – | – | – | – | IC50 [2]: Not Active; IC90 [2]: inactive |
| c1ccc2c(CN3CCc4c([nH]c5ccccc45)C3)c3ccccc3cc2c1 | – | – | – | – | inactive | Not Active | Non-toxic | Non-toxic | Non-toxic | Non-toxic | 16 µM | 80.4 µM | 11 µM | IC90 ([1]; Trypanosoma brucei, 72 h): 18.8 µM; IC90 ([2]; Leishmania donovani, 72 h): 76 µM; IC90 ([3]; Leishmania donovani, 72 h): 104 µM |
| CN1CCN(C(=O)N2CCc3c([nH]c4ccccc34)C2)CC1 | Not Active | inactive | Not Active | inactive | inactive | Not Active | – | – | – | – | – | – | – | IC50 [2]: Not Active; IC90 [2]: inactive |
| COc1ccc2c3c([nH]c2c1)C(C)=NCC3 [HARMALINE] | – | – | – | – | – | – | – | – | – | – | 117 µM | 1.16 µM | – | IC50 [11]: 1.16 µM; IC50 [12]: 117 µM |
| Cc1ccsc1C(=O)N1CCc2c([nH]c3ccccc23)C1 | Not Active | inactive | Not Active | inactive | inactive | Not Active | Non-toxic | Non-toxic | Non-toxic | Non-toxic | 26 µM | – | – | – |
| O=[N+]([O-])c1ccc(CN2CCc3c([nH]c4ccccc34)C2)o1 | – | – | – | – | inactive | Not Active | Non-toxic | Non-toxic | Non-toxic | Non-toxic | 33.8 µM | 117 µM | 1 µM | IC90 ([1]; Trypanosoma brucei, 72 h): 28.1 µM |
| c1ccc2c3c([nH]c2c1)CN(Cc1ccncc1)CC3 | – | – | Not Active | inactive | inactive | Not Active | Non-toxic | Non-toxic | Non-toxic | Non-toxic | 121 µM | – | 26.2 µM | – |
| Cc1nccc2c1[nH]c1ccccc12 [HARMAN] | – | – | – | – | – | – | – | – | – | – | 19.2 µM | 0.27 µM | – | IC50 [11]: 0.27 µM; IC50 [12]: 19.2 µM |
| N=C(N)c1ccc(OCCCCCOc2ccc(C(=N)N)cc2)cc1 [PENTAMIDINE] | – | – | – | – | – | – | – | – | – | – | 4.8 µM | > 29.4 µM | 0.0041 µM | IC90 ([1]; Trypanosoma brucei, 72 h): 0.007 µM; IC90 ([2]; Leishmania donovani, 72 h): 6.1 µM; IC90 ([3]; Leishmania donovani, 72 h): > 29.4 µM; IC90 [4, 15]: 3.1 µM; IC50 [4, 16]: 2 µM |
| O=C(c1cc2ccccc2o1)N1CCc2c([nH]c3ccccc23)C1 | Not Active | inactive | – | – | inactive | Not Active | Non-toxic | Non-toxic | Non-toxic | Non-toxic | 49.5 µM | 116 µM | – | IC90 ([2]; Leishmania donovani, 72 h): 120 µM |
| O=C(c1ccc(Br)o1)N1CCc2c([nH]c3ccccc23)C1 | – | – | – | – | inactive | Not Active | Non-toxic | Non-toxic | Non-toxic | Non-toxic | 27.5 µM | 96.5 µM | 13.7 µM | IC90 ([1]; Trypanosoma brucei, 72 h): 23.9 µM; IC90 ([3]; Leishmania donovani, 72 h): 122 µM |
| c1ccc2[nH]c(CN3CCc4c([nH]c5ccccc45)C3)nc2c1 | – | – | Not Active | inactive | inactive | Not Active | Non-toxic | Non-toxic | Non-toxic | Non-toxic | 118 µM | – | 29.7 µM | – |
| O=C(c1ccc2ccccc2n1)N1CCc2c([nH]c3ccccc23)C1 | Not Active | inactive | Not Active | inactive | inactive | Not Active | – | – | – | – | – | – | – | IC50 [2]: Not Active; IC90 [2]: inactive |
| O=C(N1CCOCC1)N1CCc2c([nH]c3ccccc23)C1 | Not Active | inactive | Not Active | inactive | inactive | Not Active | – | – | – | – | – | – | – | IC50 [2]: Not Active; IC90 [2]: inactive |
| O=C(c1cnccn1)N1CCc2c([nH]c3ccccc23)C1 | Not Active | inactive | Not Active | inactive | inactive | Not Active | – | – | – | – | – | – | – | IC50 [2]: Not Active; IC90 [2]: inactive |
